Measurements reported in PMC6479814, “Structure-Based Design of Novel Benzimidazole Derivatives as Pin1 Inhibitors” (Molecules, 2019).
Where two headings read alike, the source gives them in different places.

How the values were obtained:
[1] = biological target: T1, Pin1 (Homo sapiens, UniProt Q13526); conditions: known Pin1 inhibitors, Figure 1; cited from earlier work
T1 construct: purchased Sino Biological Inc., Beijing, China

[2] = system: tumor cells; set-up: method as in PMID 19729306, PMID 20207139, PMID 25091930; conditions: result in words; cited from earlier work
[3] = set-up: method as in PMID 29170140; conditions: in humans; cited from earlier work
[4] = biological target: T1, Pin1; test: Pin1 inhibition, protease-coupled assay; format: biochemical; conditions: 10 °C; for inhibition at 10 µM: Pin1, compound at 10 μM; for IC50: Pin1, protease-coupled assay
Description: To investigate the Pin1 inhibitory potency of all synthesized compounds, the inhibition ratio at 10 μM or IC50 of all synthesized compounds was determined using protease-coupled assay.
Pin1 inhibitory activities were measured at 10 °C by protease-coupled assay as reported previous. Suc-Ala-Glu-cis-Pro-Phe-4-nitroaniline (Bachem, Bubendorf, Switzerland) in 0.47 mol/L, LiCl/trifluoroethanol was used as the substrate. The assay buffer (860 μL of 35 mM HERES at pH 7.8), Pin1 (20 μL, Bought from Sino Biological Inc., Beijing, China) and target compounds (10 μL of varying comcentrations in DMSO) were pre-equilibtated in the cuvette at 10 °C for 30 min. Then, 150 uL of ice-cooled chymotrypsin (60 mg/mL in 0.001 M/HCl) was added and mixed immediately. Additional substrate (40 μL) was added to start the assay and the reaction was monitored by absorbance at 390 nm for 90 s. For each compound, four concentrations (10 μM, 3.3 μM, 1.1 μM, 0.37 μM) were chosen, and the assay was performed in duplicate. The data was analyzed by Graphpad Prism 6.0.

[5] = system: PC-3 cells; test: In vitro anti-proliferative MTT assay; format: cell-based, human; conditions: for GI50: Homo sapiens, PC-3 cells, MTT, 96 h
Description: As for Pin1 was overexpressed in human prostate cancer cells, the antiproliferative activity of these benzimidazole derivatives against PC-3 cells were further evaluated by MTT assay. Meanwhile, the polar surface area (PSA) of these compounds was calculated under the optimal conformation since PSA is the key indicator of membrane permeability.
The tested cells were plated in 96-well microtiter plates with a density of 2,000 cells/well and incubated in a humidified atmosphere with 5% CO2 at 37 °C for 24 h. The cells were then exposed to tested compounds of different concentrations in triplicate. After incubated for 96 h, 50 μL of 3-(4,5-dimethylthiazol-2-yl)-2,5-diphenyltetrazolium bromide (MTT) solution (2 mg/mL) was added to each well and incubated for an additional 4 h. Then the suspernatant was discarded and the fromazan was dissolved in 200 μL of dimethyl sulfoxide (DMSO). The plate was oscillated subtly at room temperature for 10 min before the absorbance was measured at 570 nm by a microplate reader. Cell inhibitory ratio was calculated with the following formula:Inhibitory Rate (%) = [(Acontrol − Atreated)/Acontrol] × 100%(1)
The GI50 was determined as the concentration that caused half inhibition of cell proliferation. All experiments were performed three times independently, and the results were reported presented as the mean.

T1 sequence (Q13526 whole entry): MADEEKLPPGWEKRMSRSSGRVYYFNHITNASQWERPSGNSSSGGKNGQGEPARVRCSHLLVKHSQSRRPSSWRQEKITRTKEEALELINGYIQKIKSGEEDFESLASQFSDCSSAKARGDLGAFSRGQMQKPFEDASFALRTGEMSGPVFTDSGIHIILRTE

Compound	inhibition at 10 µM [4] [%]	IC50 [4] [nM]	GI50 [5] [nM]	melting point [°C]	further results
Nc1nc(OCc2ccc(CNC(=O)C(F)(F)F)cc2)c2nc[nH]c2n1 [API-1]	–	–	–	–	IC50 [1]: 70 nM
O=Cc1nc2ccccc2[nH]1 [Compound 2]	–	–	–	–	antiproliferative activities against tumor cells [2]: did not exhibit antiproliferative activities
CC1=C(/C=C/C(C)=C/C=C/C(C)=C/C(=O)O)C(C)(C)CCC1 [ATRA, all-trans retinoic acid]	–	–	–	–	half-life [3]: 45 min
O=C(CCn1c(-c2nc(C(=O)O)cs2)nc2ccccc21)Nc1cccc(C(F)(F)F)c1 [Compound 13g, 2-(1-(3-Oxo-3-((3-(trifluoromethyl)phenyl)amino)propyl)-1H-benzo[d]imidazol-2-yl)thiazole-4-carboxylic acid]	99	370	> 50000	178 to 180	–
O=C(O)/C=C/c1nc2ccccc2n1CCC(=O)NCc1ccc(Br)cc1 [Compound 6j, (E)-3-(1-(3-((4-Bromobenzyl)amino)-3-oxopropyl)-1H-benzo[d]imidazol-2-yl)acrylic acid]	59	–	> 50000	210 to 212	–
O=C(CCn1c(-c2nc(C(=O)O)cs2)nc2ccccc21)Nc1cc(Cl)cc(Cl)c1 [Compound 13i, 2-(1-(3-((3,5-Dichlorophenyl)amino)-3-oxopropyl)-1H-benzo[d]imidazol-2-yl)thiazole-4-carboxylic acid]	80	1350	> 50000	192 to 194	–
O=C(O)/C=C/c1nc2ccccc2n1CCC(=O)Nc1cccc(Br)c1 [Compound 6h, (E)-3-(1-(3-((3-Bromophenyl)amino)-3-oxopropyl)-1H-benzo[d]imidazol-2-yl)acrylic acid]	90	640	9890	209 to 210	antiproliferative activity against human prostate cancer PC-3 cells ([5]; result in words): moderate antiproliferative activity
O=C(O)/C=C/c1nc2ccccc2n1CCC(=O)N1CCOCC1 [Compound 6b, (E)-3-(1-(3-Morpholino-3-oxopropyl)-1H-benzo[d]imidazol-2-yl) acrylic acid]	27	–	> 50000	207 to 209	–
